Patent US20230091221A1, “PHARMACEUTICAL COMPOSITION” (Chugai Seiyaku Kabushiki Kaisha, priority 2017, published 2023)

Key:
Type in all cases: in vivo
[1] = system: CD8-positive T cells in tumor; experiment: CD8, CD69 or Ki-67-positive tumor-infiltrating lymphocytes in FM3A syngeneic mouse model (flow cytometry); details: day 8, irinotecan 250 mg/kg ip once
Text: On day 8 of administration, tumors were collected, and then cells were dissociated using a gentleMACS (Trademark) Octo Dissociator, washed, and then used for flow cytometry, thereby quantitatively determining CD8, CD69 or Ki-67-positive tumor-infiltrating lymphocytes (TIL) (FIG. 3).

[2] = system: CD8-positive T cells in peripheral blood; experiment: Number of CD8-positive T cells in peripheral blood in FM3A syngeneic mouse model (flow cytometry); details: day 8; irinotecan 250 mg/kg ip once; P<0.05, Wilcoxon Signed-Rank Test
Method: On day 8 of administration, peripheral blood was collected, CD8-positive T cells were measured by flow cytometry (FIG. 2).

[3] = system: Foxp3-positive CD4-positive regulatory T cells in tumor; experiment: Foxp3-positive CD4-positive regulatory T cells in tumor in FM3A syngeneic mouse model (flow cytometry); details: day 8; irinotecan 250 mg/kg ip once
Text: On day 8 of administration, tumors were collected, and then cells were dissociated using a gentleMACS (Trademark) Octo Dissociator, washed, and then used for flow cytometry, thereby measuring Foxp3-positive CD4-positive regulatory T cells by flow cytometry (FIG. 4).

CCc1c2c(nc3ccc(OC(=O)N4CCC(N5CCCCC5)CC4)cc13)-c1cc3c(c(=O)n1C2)COC(=O)[C@]3(O)CC [irinotecan]
CD8-positive T cells in lymph nodes compared with the solvent administration group (FIG. 3A) [1]: not found to exhibit any significant decrease
CD69-positive CD8-positive T cells among tumor cells compared with the solvent administration group (FIG. 3B) [1]: not found to exhibit any significant decrease
Ki-67-positive CD8-positive T cells in tumors compared with the solvent administration group (FIG. 3C) ([1]; 10F.9G2 10 mg/kg ip 3 times a week): significant increases
number of CD8-positive T cells in peripheral blood versus solvent administration group [2]: significantly lower
Foxp3-positive CD4-positive regulatory T cells in tumors versus solvent administration group [3]: significantly lower
